# Measurements: patent publication US20240216547A1, “USE OF FLUORESCEIN DICARBONATE DERIVATIVES AS A CELL MARKER” (UNIVERSITE JEAN MONNET SAINT ETIENNE, priority 2021, published 2024)
# What was measured:
# Format in all cases: cell-based
# [1] = tested on: HCEC-B4G12 corneal endothelial cells; test: Impact of repeated cell marking on cell viability; settings: B4G12, 4 μM, daily marking 45 min, with or without PBS rinsing, D5
# Method: The experiment is carried out with HCEC-B4G12 corneal endothelial cells (CVCL_2065). The cells are thawed and cultured in their culture medium. The cells are trypsinized once a week before being seeded in wells of 24-well slides at a concentration of 1.10^5 cells/mL. The cells are then incubated for 5 days at 37° C., 5% CO2 until 90% confluence.
# The different wells are stained daily with Calcein-AM (4 μM) or product F4267 (40 μM), according to the following conditions: marking for 45 minutes, then rinsing with PBS or marking for 45 minutes without rinsing. The marking and possibly rinsing step is repeated every day for 4 successive days, then after 2 days without marking, the marking is repeated again for 2 consecutive days.
# The marking steps are carried out in duplicate. Afterwards, each marking, a well for each of the conditions is observed by epifluorescence microscopy (Olympus IX81 Microscope, FITC channel, ×4 objective, L: 25, Texp: 142.7 ms), while the second well (control) is kept in the darkness in order to evaluate the impact of fluorescence observation at the end of the study. On the last day of the study, the marking is carried out with calecin-AM (4 μM) in the presence of Hoescht ( 1/500) or the product F4267 (40 μM) in the presence of Hoescht ( 1/500), and the wells are imaged in MIA×4 (reconstruction of several fields to obtain a complete image of the well). […]
# [2] = tested on: normal human fetal lung fibroblasts HEL299; test: Quality of cytoplasmic marking on adherent cells; settings: HEL299, 4 μM, FITC filter, macroscope
# Method: The quality of cytoplasmic marking by compound 1 on cells was evaluated on the adherent line of normal human fetal lung fibroblasts HEL299 [ATCC CCL-137], because they form a cellular monolayer (a single thickness facilitating the evaluation of cellular morphology and enumeration). Cells were seeded at 1.10^5 cells/mL 72 h before marking, then marked with the solution of compound 1 designated by the reference F4267 at [4 μM] and [40 μM] or with a solution of Calcein-AM [4 μM], then observed in a sterile Petri dish under the FITC filter of a macroscope (macro-zoom microscope, MVX10, Olympus, Tokyo, Japan) (2 wells per condition, n=1 experiments).
# [3] = Cytotoxicity by LDH release (CyQUANT LDH Cytotoxicity Assay); settings: human, HCE-2, 4 μM, 45 min contact, read-out: cytotoxicity (% of dead cells, LDH)
# Method: The cytotoxicity of a solution of compound 1 in Cremophor® EL [CAS 61791-12-6](molar ratio 1/1), designated under the reference F4267, compared to that of calcein-AM, was evaluated on the human corneal epithelium cell line immortalized by SV40, HCE-2 (ATCC CRL-11135) using two solutions of F4267 of concentrations [40 μM] and [1000 μM] or calcein-AM (FP-F19820, Interchim) [4 μM] diluted in optiMEM (11058021, Gibco, ThermoFisher) and deposited for 45 minutes on the cells (100 μL per well seeded 24 hours previously at 1.10^5 cells/mL [3788, Corning, surface: 0.32 cm^2]. After 45 minutes of contact with compound 1 or with calcein-AM, the cells were rinsed with their culture medium, then returned to culture in an oven with 5% CO2, at 37° C. Cytotoxicity was measured by dosing lactate dehydrogenases (LDH) released into the supernatant using the CyQUANT LDH Cytotoxicity Assay kit (C20301, ThermoFisher, see cytotoxicity test below) and expressed as % of dead cells using an internal standard. Cytotoxicity was evaluated 45 minutes (before rinsing), 24 h and 48 h after the start of incubation (3 wells per condition, n=1 experiments).
# Lactate DeHydrogenases (LDH) are a family of ubiquitous cytosolic enzymes present in almost all cell types. Membrane damage causes a release of LDH into the external environment. There is a direct correlation between cellular cytotoxicity which causes membrane damage and the amount of LDH present in the extracellular environment. […]
# The cytotoxicity test was carried out with tetrazolium salt (INT) which is converted into formazan. […] The concentration of formazan being proportional to the amount of LDH present in the medium, this was quantified by an absorbance reading at 555 nm, against a blank measurement at 650 nm to eliminate the parasitic absorbance of the medium. The percentage of dead cells is then calculated from the formula below, with the maximum LDH activity being that of a well from which all cells have been lysed, and the basal LDH activity, that of a non-treated well.
# corneal endothelium = test: Quality of cytoplasmic marking on corneal endothelium; settings: human corneal endothelium, 4 μM, 45 min
# Method: The quality of cytoplasmic marking by compound 1 (solution F4267) on corneal endothelium was compared to that of Calcein-AM by staining paired corneas. The endothelial surface of the corneas was incubated for 45 minutes either with the F4267 solution (40 μM on the left eye, LE) or with Calcein-AM (4 μM on the right eye, RE) following a validated staining protocol. (Invest Ophthalmol Vis Sci. 2011, 52 (8), 6018-6025, Pipparelli and al.) (n=2 pairs of corneas).
compound,measurement,setting,value
CC(=O)OCOC(=O)CN(CC(=O)OCOC(C)=O)Cc1c(OC(C)=O)ccc2c1Oc1c(ccc(OC(C)=O)c1CN(CC(=O)OCOC(C)=O)CC(=O)OCOC(C)=O)C21OC(=O)c2ccccc21 [Calcein-AM],cell layer after repeated marking,[1],less dense
same,cell layer after repeated marking,[1]; listed as calcein-AM,absence of cell layer
same,quality of cytoplasmic marking,[2],visualize the cell cytoplasms in a similar way
same,"cytotoxicity at 45 min, 4 µM",[3]; measured at 45 min,0.6 ± 0.5%
same,"cytotoxicity at 24 h, 4 µM",[3]; measured at 24 h,26.4 ± 14.1%
same,"cytotoxicity at 48 h, 4 µM",[3]; measured at 48 h,18.8 ± 11.1%
same,marking differentiating dead cells from living cells,corneal endothelium,marking differentiating dead cells from living cells
